From patent US11680086B2, “Lipopeptide for potently inhibiting HIV, derivative thereof, pharmaceutical composition thereof and use thereof” (Institute of Pathogen Biology, Chinese Academy of Medical …, priority 2017, dated 2023)
Peptide text beside a SMILES is read from it. * marks the point of attachment. X1 = Cc1c(C)c2c(c(C)c1OC(=O)CCC(=O)*)CCC(C)(CCCC(C)CCCC(C)CCCC(C)C)O2; Stearoyl = CCCCCCCCCCCCCCCCCC(=O)*; Palmitoyl = CCCCCCCCCCCCCCCC(=O)*

What was measured:
[1] = test system: HIV-1 strain NL4-3 pseudovirus (D36G mutant); format: cell-based
Method: The supernatant was discarded from the wells. […] Inhibition rate (%) and IC50 value were calculated.

HIV-1 strain JRCSF = format: cell-based
Method: (§1) Inhibition rate (%) and IC50 value were calculated.

[2] = test system: NL4-3 pseudovirus carrying T-20 resistance mutation site of NHR; assay: inhibition of T-20 resistant strains; format: cell-based, HIV-1; details: strains with single or double mutations
[3] = test system: HIV-2 strain ROD (infectious); assay: inhibition of HIV-2; format: cell-based; details: HIV-2 ROD
Method: as §1
In order to further reflect the antiviral advantages of the potent lipopeptides of the present invention, their inhibitory activity against HIV-2 and SIV was determined in the example. The methods of antiviral activity assays used were described in the literatures published by the present inventors (see the References 13 and 30 listed in the Background Art). The molecular cloning plasmid pROD of the HIV-2 strain ROD (HIV-2ROD) was kindly provided by Professor Nuno Taveira from the University of Lisbon, Portugal, and the plasmids expressing the SIV strain SIVpbj (SIVPBJ) and SIV239 envelope proteins (pSIVpbj-Env and pSIV239, respectively) were kindly provided by Professor Xu Jianqing from the Fudan University. The preparation of the infectious ROD was the same as that of the infectious JRCSF in the above section 2.1, and the pseudoviruses SIVpbj and SIV239 were prepared by a method same as that described in the above Examples 2 and 3.

[4] = target: N39 (NHR-derived polypeptide of gp41) (Human immunodeficiency virus type 1 group M subtype B, UniProt P04578); format: binding, HIV-1; details: 10 μM each, PBS pH 7.2
Sequence of N39 (NHR-derived polypeptide of gp41) (P04578 528-566): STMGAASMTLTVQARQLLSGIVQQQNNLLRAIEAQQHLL
Method: (§2) The circular dichroism spectrophotometer was Jasco-815 by JASCO Inc., and the assay method was referred to the papers published by the inventors (see the References 18 and 30 listed in the Background Art). […] The N39 and an inhibitor were separately dissolved in a phosphate buffered saline (PBS) to prepare a PBS solution (pH 7.2) of a concentration of 20 μM. The N39 was mixed with an inhibitor at a volume ratio of 1:1 (final concentration of 10 μM for each), the mixed sample was placed at 37° C. for 30 minutes to fully react, and then the helix content and Tm value of the resultant complex were measured by the circular dichroism spectrophotometer. The scan wavelength range of the device was 195-260 nm with a wavelength interval of 1 nm, and the values measured by scanning for three times were averaged. Based on the CD signals, the interaction between the polypeptides and the helix content were determined. Then, the sample for CD signal measurement was transferred to the temperature scanning sample cell, the program of the CD device was set to temperature scanning with a detection wavelength of 220 nm and scanning range of 20-98° C., and the program scan was performed to obtain the curve of the CD signals vs temperature, based on which the Tm value was calculated. Based on the Tm value, the stability of the formed helical structure of the inhibitor and N39 was judged.

[5] = circular dichroism secondary structure analysis of the inhibitors themselves; format: physicochemical; details: for secondary structure of the inhibitor itself (in words): 10 μM, 20 μM and 40 μM in PBS
Method: as §2
For easy analysis, the α-helix content and the Tm value of the inhibitors were measured at concentrations of 10 μM, 20 μM, and 40 μM (PBS solution), respectively.

HIV-1 = details: cell fusion, entry and replication; compared with parent or control peptide
From the text: HIV-1 pseudovirus-mediated cell entry inhibition assay: basic steps included: (1) Preparation of HIV-1 pseudovirus: the 293T cells were co-transfected with a plasmid expressing the envelope protein (Env) of HIV-1 strain NL4-3 (i.e., a recombinant expression plasmid obtained by inserting the gene encoding the envelope protein (ENV) of the D36G mutant of the HIV-1 strain NL4-3 in the Table 2 of the Reference 14 listed in the Background Art into the vector pcDNA3.1(−)) and the HIV-1 backbone plasmid pSG3Δenv (provided by the AIDS Reagent Program of National Institutes of Health (NIH), catalog number: 11051) by using a cell transfection reagent, incubated in a cell incubator of 37° C. and 5% CO2 for 6 hours, and then the medium was changed, and the cells were further incubated for 48 hours. The cell culture supernatant containing pseudovirus particles was pipetted and filtered with a 0.45 μm filter to collect the supernatant, then 20% fetal bovine serum (FBS) was added thereto, the final solution was transferred to a polypropylene tube, and stored at −80° C. for ready for use or directly subjected to virus titration. (2) Titration of HIV-1 pseudovirus: the viruses were diluted by 5 folds in a 96-well plate, and 4 replicate wells with 8 gradients were set to a final volume of 100 microliters. The TZM-b1 cells were trypsinized and counted, and the cells were diluted to 1×10^5 cells/ml with DMEM complete medium; 100 μl of cells dilution (containing 15 μg/ml DEAE-dextran) per well were added and cultured at 37° C. and 5% CO2 for 48 hours. The 96-well plate was then taken from the cell culture incubator. The supernatant was discarded from the wells. To each well, 30 μl of a cell lysate was added, and after 10 minutes, 100 μl of a luciferase detection reagent was added. 100 μl of liquid was pipetted from each well and added to a corresponding 96-well white plate, and the luminescence values were read by a microplate photometer. The virus titer was calculated by the Reed-Muench method. […]

SMILES | inhibitory activity as folds of that of T-20 ([1]; NL4-3 pseudovirus entry, relative to T-20) [folds] | inhibitory activity further improved, folds ([1]; NL4-3 pseudovirus, relative to LP-50) | inhibitory activity as folds of that of T-20 (HIV-1 strain JRCSF; JRCSF replication, relative to T-20) [folds] | inhibitory activity further improved, folds (HIV-1 strain JRCSF; replicative JRCSF virus, relative to LP-50) [folds] | inhibitory activity against T-20 resistant strains (in words) [2] | inhibitory activity against HIV-2 (in words) [3] | Tm value of the complex with N39 [4] [°C] | helix content of the complex with N39 [4] [%] | secondary structure of the inhibitor itself (in words) [5] | IC50 ([1]; Entry of NL4-3 (D36G), read-out: IC50 for inhibiting pseudovirus) [pM] | inhibitory activity against NL4-3 entry (in words) ([1]; compared with LP-52) | IC50 (HIV-1 strain JRCSF; Replication of JRCSF, read-out: IC50 for inhibiting replicative virus) [pM] | inhibitory activity against JRCSF replication (in words) (HIV-1 strain JRCSF; compared with LP-52) | helix content and Tm value of the inhibitor itself (in words) ([5]; among the four potent lipopeptides) | antiviral activity (in words) (HIV-1) | interaction / binding to N39 (in words) [4]
CCCCCCCCCCCCCCCC(=O)NCCCC[C@H](NC(=O)[C@H](CCC(=O)O)NC(=O)[C@H](CC(C)C)NC(=O)[C@H](CCCCN)NC(=O)[C@H](CCCCN)NC(=O)[C@H](CC(C)C)NC(=O)[C@H](CCC(=O)O)NC(=O)[C@H](CCC(=O)O)NC(=O)[C@H](CCC(=O)O)NC(=O)[C@H](CC(N)=O)NC(=O)[C@H](CCCCN)NC(=O)[C@H](CCCCN)NC(=O)[C@H](CCC(N)=O)NC(=O)[C@H](CCC(N)=O)NC(=O)[C@H](CCC(=O)O)NC(=O)[C@H](CCC(=O)O)NC(=O)[C@H](C)NC(=O)[C@H](CCCCN)NC(=O)[C@H](CCCCN)NC(=O)[C@H](CC(C)C)NC(=O)[C@H](CC(C)C)NC(=O)[C@H](CCC(=O)O)NC(=O)[C@H](CCC(=O)O)NC(=O)[C@@H](NC(=O)[C@H](CCCCN)NC(=O)[C@H](CCC(N)=O)NC(=O)[C@H](CCC(=O)O)NC(=O)[C@H](Cc1c[nH]c2ccccc12)NC(C)=O)[C@@H](C)CC)C(N)=O [LP-52] (Ac-WEQKIEELLKKAEEQQKKNEEELKKLEK(Palmitoyl)-NH2) | 2353 | about 2 folds | 1038 | ~5 | thousands to tens of thousands of times better than that of the LP-40 | extremely potent inhibitory activity | 79.1 | 63.8 | distinct helical structure | – | – | – | – | – | – | –
CCCCCCCCCCCCCCCCCC(=O)NCCCC[C@H](NC(=O)[C@H](CCC(=O)O)NC(=O)[C@H](CC(C)C)NC(=O)[C@H](CCCCN)NC(=O)[C@H](CCCCN)NC(=O)[C@H](CC(C)C)NC(=O)[C@H](CCC(=O)O)NC(=O)[C@H](CCC(=O)O)NC(=O)[C@H](CCC(=O)O)NC(=O)[C@H](CC(N)=O)NC(=O)[C@H](CCCCN)NC(=O)[C@H](CCCCN)NC(=O)[C@H](CCC(N)=O)NC(=O)[C@H](CCC(N)=O)NC(=O)[C@H](CCC(=O)O)NC(=O)[C@H](CCC(=O)O)NC(=O)[C@H](C)NC(=O)[C@H](CCCCN)NC(=O)[C@H](CCCCN)NC(=O)[C@H](CC(C)C)NC(=O)[C@H](CC(C)C)NC(=O)[C@H](CCC(=O)O)NC(=O)[C@H](CCC(=O)O)NC(=O)[C@@H](NC(=O)[C@H](CCCCN)NC(=O)[C@H](CCC(N)=O)NC(=O)[C@H](CCC(=O)O)NC(=O)[C@H](Cc1c[nH]c2ccccc12)NC(C)=O)[C@@H](C)CC)C(N)=O [LP-80] (Ac-WEQKIEELLKKAEEQQKKNEEELKKLEK(Stearoyl)-NH2) | – | – | – | – | thousands to tens of thousands of times better than that of the LP-40 | extremely potent inhibitory activity | 79 | – | distinct helical structure | 2 | even greater than that of C16-modified LP-52 | 2 | even greater than that of C16-modified LP-52 | the higher helix content and Tm value | – | –
CC[C@H](C)[C@H](NC(=O)[C@H](CCCCN)NC(=O)[C@H](CCC(N)=O)NC(=O)[C@H](CCC(=O)O)NC(=O)[C@H](Cc1c[nH]c2ccccc12)NC(C)=O)C(=O)N[C@@H](CCC(=O)O)C(=O)N[C@@H](CCC(=O)O)C(=O)N[C@@H](CC(C)C)C(=O)N[C@@H](CC(C)C)C(=O)N[C@@H](CCCCN)C(=O)N[C@@H](CCCCN)C(=O)N[C@@H](C)C(=O)N[C@@H](CCC(=O)O)C(=O)N[C@@H](CCC(=O)O)C(=O)N[C@@H](CCC(N)=O)C(=O)N[C@@H](CCC(N)=O)C(=O)N[C@@H](CCCCN)C(=O)N[C@@H](CCCCN)C(=O)N[C@@H](CC(N)=O)C(=O)N[C@@H](CCC(=O)O)C(=O)N[C@@H](CCC(=O)O)C(=O)N[C@@H](CCC(=O)O)C(=O)N[C@@H](CC(C)C)C(=O)N[C@@H](CCCCN)C(=O)N[C@@H](CCCCN)C(=O)N[C@@H](CC(C)C)C(=O)N[C@@H](CCC(=O)O)C(=O)N[C@@H](CCCCNC(=O)CCC(=O)Oc1c(C)c(C)c2c(c1C)CCC(C)(CCCC(C)CCCC(C)CCCC(C)C)O2)C(N)=O (some centres unmarked) [LP-85] (Ac-WEQKIEELLKKAEEQQKKNEEELKKLEK(X1)-NH2) | – | – | – | – | thousands to tens of thousands of times better than that of the LP-40 | extremely potent inhibitory activity | – | – | – | – | – | – | – | – | strong antiviral effects | strong helical binding stability
CCCCCCCCCCCCCCCCCC(=O)NCCCC[C@H](NC(=O)[C@H](CCC(=O)O)NC(=O)[C@H](CC(C)C)NC(=O)[C@H](CCCCN)NC(=O)[C@H](CCCCN)NC(=O)[C@H](CC(C)C)NC(=O)[C@H](CCC(=O)O)NC(=O)[C@H](CCC(=O)O)NC(=O)[C@H](CCC(=O)O)NC(=O)[C@H](CC(N)=O)NC(=O)[C@H](CCCCN)NC(=O)[C@H](CCCCN)NC(=O)[C@H](CCC(N)=O)NC(=O)[C@H](CCC(N)=O)NC(=O)[C@H](CCC(=O)O)NC(=O)[C@H](CCC(=O)O)NC(=O)[C@H](C)NC(=O)[C@H](CCCCN)NC(=O)[C@H](CCCCN)NC(=O)[C@H](CC(C)C)NC(=O)[C@H](CC(C)C)NC(=O)[C@H](CCC(=O)O)NC(=O)[C@H](CCC(=O)O)NC(=O)[C@@H](NC(C)=O)[C@@H](C)CC)C(N)=O [LP-90] (Ac-IEELLKKAEEQQKKNEEELKKLEK(Stearoyl)-NH2) | – | – | – | – | much lower active against T-20 resistant mutant strains than the LP-52 and LP-80 | extremely potent inhibitory activity | 71.1 | – | – | – | – | – | – | – | potent antiviral activity | –
